Test results published in patent US11865126B2, “Method for treating anxiety disorders, headache disorders, and eating disorders with psilocybin” (priority 2019, dated 2024).

Assays:
[1] = Binge eating model: body weight; conditions: 1, 3 and 10 mg/kg IP
healthy subjects = assay: Social Value Orientation (SVO); type: in vivo, human
Description: In some embodiments, the Social Value Orientation (SVO) test is utilized to evaluate the safety and/or efficacy of psilocybin. The SVO Slider Measure has 6 primary items with 9 secondary (and optional) items. All of the items have the same general form. Each item is a resource allocation choice over a well-defined continuum of joint payoffs.
The following list of outcome measures are non-exhaustive. • a. The short-term change from Baseline (Day −1 [Visit 2]) to Day 7 (Visit 5) in cognitive measures of attention, spatial and working memory and executive function was measured by a composite score of the CANTAB Panel (Spatial Working Memory [SWM], Rapid Visual Information Processing [RVP], Paired Associates Learning [PAL]). • b. The short-term change from Baseline (Day −1 [Visit 2]) to Day 7 (Visit 5) in Social Cognition Panel scales (Pictorial Empathy Test [PET], Reading the Mind in the Eyes Test [RMET], Toronto Empathy Questionnaire [TEQ], Social Value Orientation [SVO], Scale of Social Responsibility [SSR]). • c. The change from Baseline (Day −1 [Visit 2]) to Day 28 (Visit 6) in cognitive measures of attention, spatial and working memory and executive function as measured by a composite score of the CANTAB Panel (SWM, RVP, PAL). • d. The long-term change from Baseline (Day −1 [Visit 2]) to Day 84 (Visit 7) in Social Cognition Panel scales (PET, RMET, TEQ, SVO, SSR). • e. Dose-related differences between cognitive effects of psilocybin at Baseline (Day −1 [Visit 2]), Day 7 (Visit 5) and Day 28 (Visit 6), as measured by a composite score of the CANTAB Panel (SWM, RVP, PAL). • f. Dose-related differences between psychological effects of psilocybin at Baseline (Day −1 [Visit 2]), Day 7 (Visit 5) and Day 84 (Visit 7), as measured by Social Cognition Panel scales (PET, RMET, TEQ, SVO, SSR). • g. Differences in cognitive effects of psilocybin between psilocybin-naïve and experienced subjects at Baseline (Day −1 [Visit 2]), Day 7 (Visit 5) and Day 28 (Visit 6), as measured by a composite score of the CANTAB Panel (SWM, RVP, PAL). • h. Differences in Positive and Negative Affect Schedule (PANAS) after study drug administration on Day 0 (Visit 3). • i. Differences between psilocybin and placebo in the Emotion Recognition Test (ERT), Intra-Extra Dimensional Set Shift (IED), One Touch Stockings (OTS), Verbal Fluency and Digit Span Forward at Day 7 (Visit 5). • j. A composite score of the CANTAB Panel, including the following tests: • i. Spatial Working Memory (SWM) (performed at Visit 2, Visit 5, and Visit 6). • ii. Rapid Visual Information Processing (RVP) (performed at Visit 2, Visit 5, and Visit 6). • iii. Paired Associates Learning (PAL) (performed at Visit 2, Visit 5, and Visit 6). • k. Cognitive Flexibility Panel • i. Emotion Recognition Task (ERT) (performed at Visit 5). • ii. Intra-Extra Dimensional Set Shift (IED) (performed at Visit 5). • iii. One Touch Stockings (OTS) (performed at Visit 5). • iv. Verbal Fluency (performed at Visit 5). • v. Digit Span Forward (performed at Visit 5). • l. Five Dimension Altered States of Consciousness questionnaire (5D-ASC) (performed at Visit 3). • m. PANAS (performed at Visit 2 and Visit 3). • n. NEO-Five Factor Inventory (NEO-FFI) (performed at Visit 2, Visit 5, and Visit 7). • o. Symptom Checklist-90 item (SCL-90) (performed at Visit 2, Visit 5, and Visit 7). • p. Life Changes Inventory (LCI): The LCI measures changes in attitudes and values after near-death experiences often used to evaluate personal transformation following spiritually oriented experiences and practices. (performed at Visit 5 and Visit 7). • q. Social Cognition Panel scales • i. Pictorial Empathy Test (PET) (performed at Visit 2, Visit 5, and Visit 7). • ii. Reading the Mind in the Eyes Test (RMET) (performed at Visit 2, Visit 5, and Visit 7). • iii. Social Value Orientation (SVO) (performed at Visit 2, Visit 5, and Visit 7). • iv. Toronto Empathy Questionnaire (TEQ) (performed at Visit 2, Visit 5, and Visit 7). • v. […]

[2] = tested on: subjects with chronic cluster headaches (CCH); assay: Chronic cluster headaches study (headache logs); type: in vivo, human; conditions: 0.14 mg/kg perorally x3; same subject
Description: The study took place over a 10 week period which consisted of a baseline observation period, 3 psilocybin sessions, and a follow-up period in subjects with CCH (FIG. 27). Throughout the course of the study, subjects completed questionnaires and headache logs in order to access headache frequency, duration, and severity.
Before the beginning of the study, subjects taking prophylactic medication underwent a 2 week wash-out period to eliminate medication. Subjects then began a baseline observation period lasting 4 weeks during which the subjects received a functional MRI (magnetic resonance imaging) scan. After the observation period, subjects were perorally administered their first dose of 0.14 mg/kg psilocybin. Blood samples were collected during the initial dosing session to establish psilocin plasma concentrations. Over the next two weeks, subjects were administered two additional doses of psilocybin with each dose administered one week apart. The last psilocybin dose was followed by 4 weeks of observation that included a functional MRI scan one week after the last psilocybin dose. Subjects were also contacted 6 and 12 months after the last psilocybin dose to gain information about the duration of potential remission periods. All regular acute treatments were permitted during the study period and recorded in the headache diary. […]

CN(C)CCc1c[nH]c2cccc(OP(=O)(O)O)c12 [psilocybin]
Overall body weight [1]: not affected
SVO angle change from baseline, LS mean difference Psilocybin 10 mg - Placebo (healthy subjects; Day 7, MMRM): 3.4
SVO angle change from baseline, LS mean difference Psilocybin 25 mg - Placebo (healthy subjects; Day 7, MMRM): 2.1
SVO angle change from baseline, LS mean difference Psilocybin 25 mg-10 mg (healthy subjects; Day 7, MMRM): −1.3
SVO type change from baseline, LS mean difference Psilocybin 10 mg - Placebo (healthy subjects; Day 7, MMRM): 0.1
SVO type change from baseline, LS mean difference Psilocybin 25 mg - Placebo (healthy subjects; Day 7, MMRM): 0.1
SVO type change from baseline, LS mean difference Psilocybin 25 mg-10 mg (healthy subjects; Day 7, MMRM): −0.0
SVO angle change from baseline, LS mean difference Psilocybin 10 mg - Placebo (healthy subjects; Day 84, MMRM): 3.4
SVO angle change from baseline, LS mean difference Psilocybin 25 mg - Placebo (healthy subjects; Day 84, MMRM): 2.4
SVO angle change from baseline, LS mean difference Psilocybin 25 mg-10 mg (healthy subjects; Day 84, MMRM): −1.0
SVO type change from baseline, LS mean difference Psilocybin 10 mg - Placebo (healthy subjects; Day 84, MMRM): 0.1
SVO type change from baseline, LS mean difference Psilocybin 25 mg - Placebo (healthy subjects; Day 84, MMRM): 0.1
SVO type change from baseline, LS mean difference Psilocybin 25 mg-10 mg (healthy subjects; Day 84, MMRM): −0.0
Cluster headache with pain greater than normal [2]: at least one very painful cluster headache
